Key:
[1] = system: IDDM associated autoantibodies; test: ELISA of patient and control sera on plate-bound human GAD65 peptides; assay type: binding; conditions: none of the control sera
Text: A set of peptides (20-23 amino acids in length, with 5 aa overlaps) that span the human GAD65 molecule were synthesized to determine whether sera from most individuals at risk, pre-IDDM and with IDDM (in contrast to healthy controls) do in fact produce antibodies that differentially recognize GAD65 linear epitopes distributed throughout the molecule.
Patient sera and most control sera were those used in a previous study (Kaufman, et al., J. Clin. Investigation, supra) All samples were coded and tested in a blind manner. Peptides were synthesized using an automatic instrument (Applied Biosystems, Foster City, Calif.) and standard conditions. Peptides were dissolved in 60 mM sodium bicarbonate buffer (pH 9.6) at 20 ug/ml and 100 ul of each was added to duplicated wells of a 96 well Nunc-Immuno Plate. Peptides were allowed to bind at 4° C. overnight. The plates were then washed three times with PBS+0.1% Tween 20 (wash buffer), after which the plates were pre-absorbed with 3% BSA in sodium bicarbonate buffer for 0.5 hours at 37° C., or at room temperature overnight. The plates were then washed 5 times with the above wash buffer. 100 ul of serum at a 1/300 dilution in PBS+0.1% Tween 20 and 1% BSA was added to each well and antibodies were allowed to bind for 1 hour at 37° C. […] The color development was measured at 410 nm using an ELISA plate reader (ICN, Biomedicals, Costa Mesa, Calif.). […]

autoantibodies to GAD65 = test: Immunoprecipitation of 35S-GAD65 by sera drawn before IDDM onset; assay type: binding, human; conditions: sera drawn 3 to 66 months before IDDM onset
Protocol: 5. Islet Cell Extractions and Immunoprecipitations. Islet cells were extracted as previously described by Atkinson, et al. (Lancet, 335:1357-1360, 1990) with the following modifications. […] Following another incubation with protein A Sepharose CL-4B (1 h, 4° C.), the complexes were then washed 5 times with 50 mM Tris HCL (pH 7.4) with 0.1% SDS, 1.0% Triton X-114, and 2 mM EDTA, and then washed again one time in double distilled water. The protein A Sepharose CL-4B was then boiled in Laemmli sample buffer (Laemmli, Nature, 227:680-685, 1970), and the samples were subjected to SDS-PAGE and fluororadiography (Kodak, X-omat AR5) using Enhance (New England Nuclear). Alternatively, the autoradiographs were analyzed by a BETAGEN (Boston, Mass.) analyzer. Both 64 KA positive and negative sera were used in each assay, to serve as interassay controls. All fluororadiographs were analyzed and rated as positive or negative after comparison with the known interassay controls.
A similar rating procedure was employed for the intensity of bands corresponding to immunoprecipitated ^35 S-GAD65 and ^35 S-GAD67.
6. Immunoprecipitations. […]
8. […] After sonication, cell debris was removed by centrifugation and protein concentration was measured (Bradford, Anal.Biochem., 72:248, […]) in the supernatant (supernatant was stored in aliquots at -70° C.).

Molecule | share of patients recognizing the peptide [1] | specimens immunoreactive with the labeled protein (autoantibodies to GAD65)
KPCSCSKVDVNYAFLHATDL [Peptide 6] | 25-37% | 
^35 S-GAD65: 35S-labeled rat GAD65 produced in a bacterial expression system (protein, UniProt Q05683 1-585, looked up, 35S label, 35S-labeled rat GAD65 produced in a bacterial expression system) Glutamate decarboxylase 2: MASPGSGFWSFGSEDGSGDPENPGTARAWCQVAQKFTGGIGNKLCALLYGDSEKPAESGGSVTSRAATRKVACTCDQKPCSCPKGDVNYALLHATDLLPACEGERPTLAFLQDVMNILLQYVVKSFDRSTKVIDFHYPNELLQEYNWELADQPQNLEEILTHCQTTLKYAIKTGHPRYFNQLSTGLDMVGLAADWLTSTANTNMFTYEIAPVFVLLEYVTLKKMREIIGWPGGSGDGIFSPGGAISNMYAMLIARYKMFPEVKEKGMAAVPRLIAFTSEHSHFSLKKGAAALGIGTDSVILIKCDERGKMIPSDLERRILEVKQKGFVPFLVSATAGTTVYGAFDPLLAVADICKKYKIWMHVDAAWGGGLLMSRKHKWKLNGVERANSVTWNPHKMMGVPLQCSALLVREEGLMQSCNQMHASYLFQQDKHYDLSYDTGDKALQCGRHVDVFKLWLMWRAKGTTGFEAHIDKCLELAEYLYNIIKNREGYEMVFDGKPQHTNVCFWFVPPSLRVLEDNEERMSRLSKVAPVIKARMMEYGTTMVSYQPLGDKVNFFRMVISNPAATHQDIDFLIEEIERLGQDL |  | 9 out of 12
